Source: PMC3274752 (Cancer discovery, 2011)

Experiments:
[1] = tested on: DDR2-mutant HCC-366 cells; settings: cited from earlier work
[2] = tested on: SCC lines harboring DDR2 mutations; assay: Proliferation and viability of SCC lines harboring DDR2 mutations; format: cell-based; settings: for inhibition of proliferation: SCC lines harboring DDR2 mutations
[3] = tested on: Ba/F3 cells expressing DDR2 mutations; assay: Four-day proliferation of IL-3-independent Ba/F3 cells expressing DDR2 mutants; format: cell-based; settings: for killing / proliferation of DDR2-transformed Ba/F3 cells: IL-3-independent Ba/F3 cells expressing DDR2 mutations, single agent
[4] = tested on: Ba/F3 cells expressing DDR2 L63V; format: cell-based; settings: Ba/F3 DDR2 L63V grown in 50 nM nilotinib
[5] = tested on: NIH-3T3 cells expressing DDR2 L63V; assay: Soft agar colony formation, NIH-3T3 expressing DDR2 L63V; format: cell-based; settings: single application at the time of plating
[6] = tested on: Ba/F3 cells, vector control grown in the presence of IL-3; assay: Four-day proliferation of control Ba/F3 cells grown in IL-3; format: cell-based; settings: Mus musculus, BaF3, 96 h, read-out: mean calculated IC50 for the control
[7] = cited from earlier work
NCI-H1703 SCC cell line = settings: NCI-H1703, PDGFRA amplification, positive control
[8] = tested on: NCI-H2286 xenograft tumors; assay: Xenograft of NCI-H2286 in athymic nude mice; format: in vivo; settings: 50 mg/kg oral gavage, two weeks
[9] = tested on: NCI-H1703 xenograft tumors; assay: Xenograft of NCI-H1703 in athymic nude mice; format: in vivo; settings: 50 mg/kg oral gavage, two weeks
A549 cell line = assay: Cell-Titer-Glo proliferation, six days, A549; format: cell-based; settings: Homo sapiens, A549, read-out: calculated IC50, proliferation

C#Cc1cccc(Nc2ncnc3cc(OCCOC)c(OCCOC)cc23)c1 [erlotinib]
GI50 ([1]; DDR2 mutant HCC-366 cell line): 990 nM | sensitivity relative to dasatinib ([2]; HCC-366 and NCI-H2286, initial experiments, data not shown): at least ten-fold less than dasatinib

CN1CCN(CCOc2cc(OC3CCOCC3)c3c(Nc4c(Cl)ccc5c4OCO5)ncnc3c2)CC1 [AZD0530]
killing / proliferation of DDR2-transformed Ba/F3 cells [3]: modest effect on the proliferation | proliferation on addition of AZD0530 to 50 nM nilotinib [4]: marked reduction in proliferation

Cc1ccc(C(=O)Nc2ccc(CN3CCN(C)CC3)c(C(F)(F)F)c2)cc1C#Cc1cnc2cccnn12 [AP24534]
killing / proliferation of DDR2-transformed Ba/F3 cells [3]: effective in killing | inhibition of proliferation [2]: inhibited the proliferation of SCC lines harboring DDR2 mutations

Cc1cn(-c2cc(NC(=O)c3ccc(C)c(Nc4nccc(-c5cccnc5)n4)c3)cc(C(F)(F)F)c2)cn1 [nilotinib]
effect on proliferation at 50 nM ([3]; 50 nM, wild-type Ba/F3 cells or Ba/F3 cells expressing DDR2 mutations): little effect on proliferation | killing / proliferation of DDR2-transformed Ba/F3 cells [3]: modest activity | inhibition of proliferation [2]: inhibited the proliferation of SCC lines harboring DDR2 mutations

Cc1nc(Nc2ncc(C(=O)Nc3c(C)cccc3Cl)s2)cc(N2CCN(CCO)CC2)n1 [dasatinib]
colony formation in soft agar [5]: Colony formation could be inhibited | IC50 [6]: 30 µM | toxicity in patients [7]: myelosuppression and the development of pleural and pericardial effusions | rank of sensitivity among 83 NSCLC cell lines ([1]; HCC-366): most sensitive squamous cell lung cancer line to dasatinib | IC50 ([3]; Mus musculus, BaF3, 96 h, read-out: mean calculated IC50 for the mutants): 680 nM | cellular annexin V staining ([2]; 48 hours after addition of drug, data not shown): increase in cellular annexin V staining | cell death versus cell cycle arrest by trypan blue exclusion ([2]; DDR2 mutant cell lines): cell death as opposed to cell cycle arrest | sensitivity in proliferation assay (NCI-H1703 SCC cell line): sensitive to both drugs | tumor size [8]: decrease in tumor size | tumor size [9]: decrease in tumor size | IC50 (A549 cell line): 7.4 µM
